In article PMC13095408, “DBeQ derivative targets vacuolar protein sorting 4 functions in cancer cells and suppresses tumor growth in mice” (The Journal of Pharmacology and Experimental Therapeutics, 2025):

Experiments:
U2OS cells = assay: Immunoblot analysis of VPS4- and VCP-mediated pathways (autophagy, ER stress, ERAD); assay type: cell-based; conditions: 0.6 μM CB-5083, 1 μM 4-107, complete media
Description: Whole-cell lysates were prepared in radio-immunoprecipitation buffer (25 mM Tris-HCl, pH 8.0, 150 mM NaCl, 1 mM EDTA, 1% v/v IGEPAL CA-630, 0.5% w/v sodium deoxycholate, and 1% v/v SDS) containing protease (1:250) and phosphatase inhibitor cocktails (1:100) then resolved via SDS-PAGE and probed with the indicated antibodies. Signals were acquired with the Odyssey CLx (LI-COR) for fluorescence or Odyssey XF (LI-COR) for chemiluminescence detection and visualized in Image Studio version 6 (LI-COR).
VPS4 is essential for autophagy and loss of VPS4 function inhibits autophagic flux ([Takahashi et al, 2018]; [Zhen et al, 2019]). Meanwhile, VCP is required for endoplasmic reticulum-associated degradation (ERAD; [Rabinovich et al, 2002]) where VCP inhibition results in the accumulation of ubiquitinated proteins and induction of ER stress ([Weihl et al, 2006]; [Bastola et al, 2016]).

VPS4B = target: T1, VPS4B (Homo sapiens, UniProt O75351); assay: VPS4B ATPase activity, EnzChek Phosphate assay; assay type: biochemical; set-up: His tag (pET28a vector-encoded) (N); made in house; host or cells: Escherichia coli BL21(DE3)
T1 sequence (O75351 1-444): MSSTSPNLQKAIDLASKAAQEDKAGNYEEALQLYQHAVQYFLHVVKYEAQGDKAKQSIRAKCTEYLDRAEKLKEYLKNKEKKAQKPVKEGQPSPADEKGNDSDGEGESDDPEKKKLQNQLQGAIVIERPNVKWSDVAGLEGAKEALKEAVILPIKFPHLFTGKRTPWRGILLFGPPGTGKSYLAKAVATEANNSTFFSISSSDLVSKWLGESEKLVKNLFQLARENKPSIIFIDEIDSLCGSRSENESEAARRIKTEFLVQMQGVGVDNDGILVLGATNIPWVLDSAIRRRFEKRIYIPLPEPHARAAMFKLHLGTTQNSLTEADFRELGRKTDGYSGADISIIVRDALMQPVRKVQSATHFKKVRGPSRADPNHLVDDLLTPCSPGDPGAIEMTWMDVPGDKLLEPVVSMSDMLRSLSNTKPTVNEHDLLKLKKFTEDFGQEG
Description: (§1) VPS4B and VCP ATPase activities were measured using the EnzChek Phosphate assay for the quantification of released phosphate. Assay buffers were based on literature precedents ([Cupido et al, 2019], [2021]) as follows: VPS4B buffer (20 mM HEPES-KOH, pH 7.4, 25 mM KOAc, 2 mM MgCl2, 5 mM (NH4)2SO4, 0.5 mM CaCl2, 2.5 mM DTT, 0.1 mg/mL BSA, 0.005% v/v Triton X-100), VCP buffer (20 mM HEPES-NaOH, pH 7.4, 20 mM NaCl, 10 mM MgCl2, 5 mM (NH4)2SO4, 0.5 mM CaCl2, 2.5 mM DTT, 0.1 mg/mL BSA, 0.005% v/v Triton X-100). In black clear-bottom 384-well plates, 22.5 μL of 5% DMSO or 40× test compounds diluted in the respective assay buffer was added to each well. ATPases were diluted to 1 μM in the respective buffers containing 2× EnzChek Phosphate assay coupling reagents of 400 μM MESG and 2 U of PNP, then 25 μL was added to each well. Plates were mixed at 1000 rpm for 30 minutes at RT while being protected from light. The reaction was initiated by adding 2.5 μL of 20 mM MgATP or water followed by mixing at 1200 rpm for 30 seconds at RT. Plates were measured at 360 nm using a CLARIOstar plate reader (BMG LABTECH) for 20 minutes at 37 °C. ATPase activity was calculated as the amount of phosphate released over a 5-minute interval under linear initial velocity conditions. The remaining ATPase activity was calculated by normalizing compound-treated activity values to the DMSO control. IC50 was calculated by fitting normalized values to a sigmoidal dose-response curve with Hill slope = −1 using Graph Pad Prism 10.0.
(§2) To identify VPS4i, we developed enzyme- and cell-based VPS4 functional assays to serve as VPS4i-screening platforms. For the enzyme-based assay, we used the colorimetric EnzChek Phosphate assay that detects free phosphate with the advantage of continuous measurement of ATP hydrolysis over time. […] Due to the high sequence and structural similarity of AAA-ATPases, we also established a VCP ATPase assay to evaluate hit selectivity. […] For the cell-based assay, our approach was based on how VPS4 inhibition causes the accumulation of ESCRT-III ([Babst et al, 1998]; [Katoh et al, 2003]). We used an N-terminal GFP-tagged CHMP4B reporter system because it is the most abundant ESCRT-III subunit ([Katoh et al, 2004]; [Teis et al, 2008]). Our aim was to test compounds under short-term serum and amino acid starvation to stimulate ESCRT activity for easier detection of inhibitors ([Takahashi et al, 2018], [2019]). […] Overall, we established 2 systems for VPS4i screening, a VPS4B ATPase activity assay and a GFP-CHMP4B accumulation cell-based assay.

[1] = tested on: GFP-CHMP4B-expressing U2OS cells; assay: GFP-CHMP4B accumulation cell-based assay (high-content microscopy)
Description: Plates were then scanned using the 20× objective for 1 hour with ≥100 cells/well across 6 fields/well. […] For all other assays, the cells were cultured overnight in black glass-bottom 96-well plates (Cellvis; P96-1.5H-N) then stained, rinsed, and treated with SM containing the indicated compounds (0.1% DMSO or 0.1% DMSO/0.1% ethanol [vehicle] final). Plates were scanned using the 20× NA .70 objective at the indicated intervals with ≥ 300 cells/well across 3 fields/well. […]

recombinant human VCP = target: T2, recombinant human VCP (Rattus norvegicus, UniProt P46462); assay: VCP ATPase activity, EnzChek Phosphate assay; assay type: biochemical
T2 construct: His (N); host or cells: Escherichia coli BL21(DE3)
T2 sequence (P46462 2-806 limits assumed): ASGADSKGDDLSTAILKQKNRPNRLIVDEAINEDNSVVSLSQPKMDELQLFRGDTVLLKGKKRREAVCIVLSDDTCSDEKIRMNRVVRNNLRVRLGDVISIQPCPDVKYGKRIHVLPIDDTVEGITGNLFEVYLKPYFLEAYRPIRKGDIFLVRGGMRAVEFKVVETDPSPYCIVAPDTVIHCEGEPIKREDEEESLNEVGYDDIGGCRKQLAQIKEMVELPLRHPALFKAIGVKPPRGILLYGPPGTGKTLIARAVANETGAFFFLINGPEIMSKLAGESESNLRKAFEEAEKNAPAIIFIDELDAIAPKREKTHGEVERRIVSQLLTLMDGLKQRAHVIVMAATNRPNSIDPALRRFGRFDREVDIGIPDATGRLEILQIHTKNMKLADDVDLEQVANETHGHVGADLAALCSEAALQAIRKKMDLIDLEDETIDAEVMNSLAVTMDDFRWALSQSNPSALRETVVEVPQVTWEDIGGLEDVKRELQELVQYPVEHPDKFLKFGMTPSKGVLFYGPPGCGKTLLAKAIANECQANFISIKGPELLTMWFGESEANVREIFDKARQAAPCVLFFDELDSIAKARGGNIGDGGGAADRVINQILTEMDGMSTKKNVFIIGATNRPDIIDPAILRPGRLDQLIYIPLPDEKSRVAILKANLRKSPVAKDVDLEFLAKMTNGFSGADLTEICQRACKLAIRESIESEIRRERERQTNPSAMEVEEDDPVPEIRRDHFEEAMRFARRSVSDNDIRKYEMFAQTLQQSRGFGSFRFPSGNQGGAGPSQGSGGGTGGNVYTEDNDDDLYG
Description: as §1, §2

[2] = screened at 5 µM, mean ± S.D., Supplemental Table 2
[3] = screened at 1 µM, mean ± S.D., Supplemental Table 2
[4] = remaining ATPase activity, screened at 5 μM, mean ± SD, Table 1
[5] = screened at 1 μM, starvation media, 1 hour, foci intensity per cell normalized to 4-107, mean ± SD, Table 1
[6] = remaining ATPase activity, screened at 5 μM, mean ± SD, Table 2

Row | SMILES | accumulation of K48-linked polyubiquitinated proteins (U2OS cells) | ER stress (HSPA5, ATF4) (U2OS cells; 5 μM DBeQ) | autophagy (SQSTM1, LC3-II) (U2OS cells; 5 μM DBeQ) | VPS4B ATPase (% DMSO) (VPS4B; [2]) | GFP-CHMP4B (% 4-107) [1, 3] | VCP ATPase (% DMSO) (recombinant human VCP; [2]) | VPS4B ATPase (% DMSO) (VPS4B; [4]) | GFP-CHMP4B (% 4-107) [1, 5] | VPS4B ATPase (% DMSO) (VPS4B; screened at 5 µM, mean ± S.D., Supplemental Table 2, listed as 7-07) | GFP-CHMP4B (% 4-107) ([1]; screened at 1 µM, mean ± S.D., Supplemental Table 2, listed as 7-07) | VCP ATPase (% DMSO) (recombinant human VCP; [6])
1 | Cc1cc2c(C(N)=O)cccc2n1-c1nc2c(c(NCc3ccccc3)n1)COCC2 [CB-5083] | accumulation of K48-linked polyubiquitinated proteins | strongly induced ER stress | reduction in SQSTM1, indicating the stimulation of autophagy |  |  |  |  |  |  |  | 
2 | COc1cccc(CNc2nc(NCc3ccccc3)c3cccc(OC)c3n2)c1 [Compound 5-27-2] |  |  |  | 51.50 ± 0.83 % DMSO | 71.11 ± 0.37 % 4-107 | 100.03 ± 0.81 % DMSO |  |  |  |  | 
3 | COc1cccc2c(NCc3ccccc3)nc(NCc3ccc(F)cc3)nc12 [Compound 5-151] |  |  |  | 47.66 ± 0.34 % DMSO | 73.02 ± 27.67 % 4-107 | 93.82 ± 0.90 % DMSO |  |  |  |  | 
4 | COc1ccc2c(NCc3ccccc3)nc(NCc3ccccc3)nc2c1 [Compound 6] |  |  |  | 35.59 ± 2.28 % DMSO | 33.47 ± 15.62 % 4-107 | 86.15 ± 0.65 % DMSO | 35.59 ± 2.28 % DMSO | 33.47 ± 15.62 % 4-107 |  |  | 
5 | COc1cccc2c(NCc3ccccc3)nc(NCc3ccc(C#N)cc3)nc12 [Compound 7-05] |  |  |  | 54.50 ± 2.02 % DMSO | 42.59 ± 0.15 % 4-107 | 95.43 ± 0.86 % DMSO |  |  |  |  | 
6 | Nc1cccc2c(NCc3ccccc3)nc(NCc3ccccc3)nc12 [Compound 7-31] |  |  |  |  | 48.41 ± 2.74 % 4-107 | 69.70 ± 8.05 % DMSO |  |  |  |  | 
7 | COc1cccc2c(NCc3ccccc3)nc(NCc3cccc4ccccc34)nc12 [Compound 13] |  |  |  | 28.27 ± 0.04 % DMSO | 36.79 ± 0.89 % 4-107 | 98.67 ± 2.86 % DMSO | 28.27 ± 0.04 % DMSO | 36.79 ± 0.89 % 4-107 |  |  | 
8 | COc1cccc2c(NCc3ccccc3)nc(NCc3cccc(C(F)(F)F)c3)nc12 [Compound 15] |  |  |  | 28.57 ± 1.13 % DMSO | 25.61 ± 20.09 % 4-107 |  | 28.57 ± 1.13 % DMSO | 25.61 ± 20.09 % 4-107 |  |  | 
9 | COc1cccc2c(NCc3ccccc3)nc(NCc3cccc(OC(F)(F)F)c3)nc12 [Compound 16] |  |  |  |  |  |  | 41.50 ± 2.98 % DMSO | 7.52 ± 1.95 % 4-107 | 41.50 ± 2.98 % DMSO | 7.52 ± 1.95 % 4-107 | 
10 | COc1cccc2c(NCc3ccccc3)nc(NCc3cccc(C#N)c3)nc12 [Compound 17] |  |  |  | 55.59 ± 2.13 % DMSO | 82.61 ± 11.90 % 4-107 | 91.83 ± 3.79 % DMSO | 55.59 ± 2.13 % DMSO | 82.61 ± 11.90 % 4-107 |  |  | 91.83 ± 5.36 % DMSO
11 | COc1cccc2c(NCc3ccccc3)nc(NCc3ccc(C)cc3)nc12 [Compound 18] |  |  |  | 27.55 ± 0.01 % DMSO | 48.09 ± 1.26 % 4-107 | 83.40 ± 3.28 % DMSO | 27.55 ± 0.01 % DMSO | 48.09 ± 1.26 % 4-107 |  |  | 83.40 ± 4.64 % DMSO
12 | COc1ccc(CNc2nc(NCc3ccccc3)c3cccc(OC)c3n2)cc1 [Compound 19] |  |  |  | 29.98 ± 0.49 % DMSO | 86.61 ± 22.39 % 4-107 | 107.28 ± 1.88 % DMSO | 29.98 ± 0.49 % DMSO | 86.61 ± 22.39 % 4-107 |  |  | 107.28 ± 2.66 % DMSO
13 | COc1cccc2c(NCc3ccccc3)nc(NCc3cccc(F)c3)nc12 [Compound 20] |  |  |  | 35.22 ± 0.66 % DMSO | 99.48 ± 22.3 % 4-107 | 80.50 ± 0.40 % DMSO | 35.22 ± 0.66 % DMSO | 99.48 ± 22.30 % 4-107 |  |  | 80.50 ± 0.57 % DMSO
14 | COc1ccc(CNc2nc(NCc3ccc(OC)cc3)c3cccc(OC)c3n2)cc1 [Compound 21] |  |  |  | 33.98 ± 3.50 % DMSO | 37.69 ± 13.03 % 4-107 | 100.96 ± 0.28 % DMSO | 33.98 ± 3.50 % DMSO | 37.69 ± 13.03 % 4-107 |  |  | 
15 | COc1cccc2c(NCc3ccc(F)cc3)nc(NCc3ccc(F)cc3)nc12 [Compound 22] |  |  |  | 46.38 ± 2.33 % DMSO | 51.23 ± 26.20 % 4-107 | 99.33 ± 2.70 % DMSO | 46.38 ± 2.33 % DMSO | 51.23 ± 26.20 % 4-107 |  |  | 
